In data set [1] the test system is Trypanosoma cruzi. Description: Antimicrobial activity against Trypanosoma cruzi Tulahuen infected in Swiss mouse assessed as mouse mortality at 60 mg/kg/day, po for 6 days per week until completion of 60 compound doses administered 5 days post infection. It counts as functional.
The subject of data set [2] is Trypanosoma cruzi. The experiment in a line: Antimicrobial activity against Trypanosoma cruzi Tulahuen infected in Swiss mouse assessed as parasite DNA level at 60 mg/kg/day, po for 6 days per week until completion of 60 compound doses administered 5 days post infection measured 30 days post dose by PCR amplification method. It counts as functional.
Data set [3] deals with Trypanosoma cruzi. Description: Antimicrobial activity against Trypanosoma cruzi Tulahuen infected in Swiss mouse assessed as parasite DNA level at 60 mg/kg/day, po for 6 days per week until completion of 60 compound doses administered 5 days post infection measured 180 days post dose by PCR amplification method. It counts as functional.
Data set [4] relates to Trypanosoma cruzi. Description: Antimicrobial activity against Trypanosoma cruzi Tulahuen infected in Swiss mouse assessed as reduction in blood parasite load at 60 mg/kg/day, po for 6 days per week until completion of 60 compound doses administered 5 days post infection. It counts as functional, organism-based.
In data set [5] the test system is Trypanosoma cruzi. The experiment in a line: Antimicrobial activity against Trypanosoma cruzi Tulahuen infected in Swiss mouse assessed as reduction in parasite specific antibodies at 60 mg/kg/day, po for 6 days per week until completion of 60 compound doses administered 5 days post infection measured 45 days post dose by ELISA based serological study. It counts as functional, organism-based. For orientation: ELISA stands for enzyme-linked immunosorbent assay.

The test system of data set [6] is Trypanosoma cruzi. Description: Antimicrobial activity against Trypanosoma cruzi Tulahuen infected in Swiss mouse assessed as reduction in parasite specific antibodies at 60 mg/kg/day, po for 6 days per week until completion of 60 compound doses administered 5 days post infection measured 180 days post dose by ELISA based serological study. It counts as functional. More on the design: scale not given: the % may be the effect or the level left.

For data set [7], the system named is Trypanosoma cruzi. Description: Antimicrobial activity against Trypanosoma cruzi Tulahuen infected in Swiss mouse assessed as reduction in reduction in parasite induced histopathological changes in skeletal muscle at 60 mg/kg/day, po for 6 days per week until completion of 60 compound doses administered 5 days post infection by hematoxylin-eosin staining. It counts as functional, organism-based.

Data set [8] relates to Trypanosoma cruzi. Description: Antimicrobial activity against Trypanosoma cruzi Tulahuen infected in Swiss mouse assessed as reduction in reduction in parasite induced histopathological changes in liver at 60 mg/kg/day, po for 6 days per week until completion of 60 compound doses administered 5 days post infection by hematoxylin-eosin staining. It counts as functional, organism-based.

Data set [9] has as its system Mus musculus. The experiment in a line: Toxicity in Trypanosoma cruzi Tulahuen infected in Swiss mouse assessed as changes in liver SGOT enzyme levels at 60 mg/kg/day, po for 6 days per week until completion of 60 compound doses administered 5 days post infection […]. It counts as organism-based. More on the design: route oral. The note with it: in vivo.

Data set [10] deals with Trypanosoma cruzi. The experiment in a line: Antimicrobial activity against Trypanosoma cruzi Tulahuen infected in Swiss mouse assessed as mouse mortality rate at 150 mg/kg/day, po for 6 days per week until completion of 60 compound doses administered 5 days post infection. It counts as functional.
The test system of data set [11] is Trypanosoma cruzi. The experiment in a line: Antimicrobial activity against Trypanosoma cruzi Tulahuen infected in Swiss mouse assessed as parasite DNA level at 150 mg/kg/day, po for 6 days per week until completion of 60 compound doses administered 5 days post infection measured 30 days post dose by PCR amplification method. It counts as functional.
Data set [12] has as its system Trypanosoma cruzi. The experiment in a line: Antimicrobial activity against Trypanosoma cruzi Tulahuen infected in Swiss mouse assessed as parasite DNA level at 150 mg/kg/day, po for 6 days per week until completion of 60 compound doses administered 5 days post infection measured 180 days post dose by PCR amplification method. It counts as functional.
Data set [13] relates to Trypanosoma cruzi. Description: Antimicrobial activity against Trypanosoma cruzi Tulahuen infected in Swiss mouse assessed as reduction in blood parasite load at 150 mg/kg/day, po for 6 days per week until completion of 60 compound doses administered 5 days post infection. It counts as functional, organism-based.
Data set [14] concerns Trypanosoma cruzi. Description: Antimicrobial activity against Trypanosoma cruzi Tulahuen infected in Swiss mouse assessed as reduction in parasite specific antibodies at 150 mg/kg/day, po for 6 days per week until completion of 60 compound doses administered 5 days post infection measured 45 days post dose by ELISA based serological study. It counts as functional, organism-based.

Data set [15] concerns Trypanosoma cruzi. The experiment in a line: Antimicrobial activity against Trypanosoma cruzi Tulahuen infected in Swiss mouse assessed as reduction in parasite specific antibodies at 150 mg/kg/day, po for 6 days per week until completion of 60 compound doses administered 5 days post infection measured 180 days post dose by ELISA based serological study. It counts as functional. Also noted: scale not given: the % may be the effect or the level left.

In data set [16] the test system is Trypanosoma cruzi. The experiment in a line: Antimicrobial activity against Trypanosoma cruzi Tulahuen infected in Swiss mouse assessed as reduction in reduction in parasite induced histopathological changes in skeletal muscle at 150 mg/kg/day, po for 6 days per week until completion of 60 compound doses administered 5 days post infection by hematoxylin-eosin staining. It counts as functional, organism-based.

The test system of data set [17] is Trypanosoma cruzi. The experiment in a line: Antimicrobial activity against Trypanosoma cruzi Tulahuen infected in Swiss mouse assessed as reduction in reduction in parasite induced histopathological changes in liver at 150 mg/kg/day, po for 6 days per week until completion of 60 compound doses administered 5 days post infection by hematoxylin-eosin staining. It counts as functional, organism-based.

Data set [18] concerns Mus musculus. The experiment in a line: Toxicity in Trypanosoma cruzi Tulahuen infected in Swiss mouse assessed as changes in liver SGOT enzyme levels at 150 mg/kg/day, po for 6 days per week until completion of 60 compound doses administered 5 days post infection […]. It counts as organism-based. More on the design: route oral. The note with it: in vivo.

The subject of data set [19] is Mus musculus. The experiment in a line: Toxicity in Swiss mouse infected with Trypanosoma cruzi Tulahuen assessed as occurrence of erected hair at 150 mg/kg/day, po for 6 days per week until completion of 60 compound doses administered 5 days post infection measured 2 weeks post dose. It counts as organism-based. Also noted: route oral. Conditions: in vivo, 336 h.

In data set [20] the test system is Mus musculus. The experiment in a line: Toxicity in Swiss mouse infected with Trypanosoma cruzi Tulahuen assessed as occurrence of dehydration at 150 mg/kg/day, po for 6 days per week until completion of 60 compound doses administered 5 days post infection measured 2 weeks post dose. It counts as organism-based. More on the design: route oral. Conditions: in vivo, 336 h.

For data set [21], the system named is Mus musculus. The experiment in a line: Toxicity in Swiss mouse infected with Trypanosoma cruzi Tulahuen assessed as occurrence of inactivity at 150 mg/kg/day, po for 6 days per week until completion of 60 compound doses administered 5 days post infection measured 2 weeks post dose. It counts as organism-based. More on the design: route oral. The note with it: in vivo, 336 h.

Active and inactive are the calls of the source. No cut-off for these calls is given here.

For the compound `O=C(Cn1ccnc1[N+](=O)[O-])NCc1ccccc1` [BENZNIDAZOLE], the Activity was 33.3% in the data set with Trypanosoma cruzi [1]; 0% in the data set with Trypanosoma cruzi [2]; 0% in the data set with Trypanosoma cruzi [3]; 50% with Trypanosoma cruzi [6]; “Non-toxic” with Mus musculus [9]. Besides, the result in the data set with Trypanosoma cruzi [4], in the data set with Trypanosoma cruzi [5], with Trypanosoma cruzi [7] and in the data set with Trypanosoma cruzi [8] was Active.

For the compound `O=C(NCO)N/N=C/c1ccc([N+](=O)[O-])o1` [HYDROXYMETHYLNITROFURAZONE], the Activity in the data set on Trypanosoma cruzi [10] is given as 16%; in the data set on Trypanosoma cruzi [11] it was 10%; with Trypanosoma cruzi [12] it was 0%; in the data set with Trypanosoma cruzi [15], 30%; in the data set with Mus musculus [18] it was “Non-toxic”. For the same compound, the result with Trypanosoma cruzi [13], with Trypanosoma cruzi [14], in the data set with Trypanosoma cruzi [16] and with Trypanosoma cruzi [17] was Active.

Turning to `NC(=O)N/N=C/c1ccc([N+](=O)[O-])o1` [NITROFURAZONE], the Activity with Trypanosoma cruzi [10] is reported as 75%; in the data set with Trypanosoma cruzi [11], 66.6%; in the data set with Trypanosoma cruzi [12], 0%; in the data set with Mus musculus [19], “Toxic”; in the data set with Mus musculus [20] it was “Toxic”; in the data set with Mus musculus [21], “Toxic”. Further, the Activity entry with Mus musculus [18] is recorded as “Non-toxic”. Further, the outcome in the data set on Trypanosoma cruzi [13], with Trypanosoma cruzi [14], with Trypanosoma cruzi [16] and in the data set on Trypanosoma cruzi [17] was Active.
